Experimental findings from patent US7781428B2 (Pfizer Inc., priority 2006, dated 2010) are described below.

In general, IC50 refers to the midpoint of a concentration-inhibition curve.

Structures can show the parent of a compound that is named as a salt. Where only a bound is given, the exact number is not on record here.

The target of the test is T1, mineralocorticoid receptor (MR) (Homo sapiens, UniProt P08235).
T1 construct: expressed in transfected cells; host or cells: Huh7 (human liver cells)
T1 sequence (P08235 726-964 limits assumed): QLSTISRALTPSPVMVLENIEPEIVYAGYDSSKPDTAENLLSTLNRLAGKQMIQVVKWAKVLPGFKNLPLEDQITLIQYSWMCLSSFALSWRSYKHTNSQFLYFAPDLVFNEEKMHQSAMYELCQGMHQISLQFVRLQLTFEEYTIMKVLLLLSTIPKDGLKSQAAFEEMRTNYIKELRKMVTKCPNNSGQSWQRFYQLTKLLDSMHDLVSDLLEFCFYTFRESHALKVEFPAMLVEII
The test is described as follows: Cell-based Gal4 response element-controlled luciferase reporter assay (MR antagonism). The following applies: Huh7 human liver cells transfected with Gal4 DBD-MR LBD fusion and luciferase reporter; block of agonist-induced activation; overnight incubation. From the text:
Method 1: Cell-based Gal4 Response Element-controlled Luciferase Reporter Assay
An in vitro assay can be used to evaluate mineralocorticoid receptor (MR) antagonism by a test compound. […] An agonist of the receptor can bind to and activate the receptor LBD, which activate the expression of the Gal4 response element containing luciferase reporter gene. Antagonists can compete for binding to the receptor LBDs and decrease the transcription activity of the reporter gene. Measurement of luciferase activity allows quantitative determinations of the reporter transcription in the presence of either agonists or agonists and antagonists in combination. β-galactosidase activity, which is unaffected by ligand, is used to normalize the transfection efficiency in the cell population.
Huh7 cells were plated in RPMI1640+10% fetal bovine serum (Invitrogen Corporation, San Diego, Calif.), at 10,000 cells per well in 96-well tissue culture dishes for approximately 24 hours. Cells were then transfected using FuGENE™ 6 Transfection Reagent according to manufacturers' instructions (Roche Molecular Biochemicals, Indianapolis, Ind.). Approximately 20 hours after transfection, media were removed. Cells were washed once with PBS and treated (n=6/group) with agonist for each receptor (all chemicals from Sigma, St. Louis, Mo.), and with compounds. Agonist concentrations represent 70-80% of full activation of each receptor.
Compounds were dissolved in DMSO at 10 mM and diluted to final concentrations in phenol red-free media that contained 10% charcoal- and dextran-stripped serum (Life Technologies, Gathersburg, Md.). Following overnight incubation (18-20 hours) with compounds, the medium was removed and replaced with 100 μL per well of PBS and 100 μL of Steady-Glo™ lysis buffer with luciferase substrate (Promega Corporation, Madison, Wis.). After a 30-minute incubation to completely lyse the cells, 100 μL of the lysate was transferred to a black, Dynatech Microfluor assay plates (Dynex Corporation, Chantilly, Va.) to measure luciferase activity. The plate was sealed with TopSeal self-adhesive film, dark-adapted for 5 minutes, then counted in a TopCount Plate Reader (Packard Instrument Company, Meriden, Conn.) in single photon counting mode. The remaining lysate was used for determination of β-galactosidase activity. In a clear 96-well assay plate, 100 μL of cell lysate was added to 100 μL β-galactosidase assay buffer per well. The assay buffer consisted of 60 mM Na2HPO4, 40 mM NaH2PO4, 10 mM KCl, 1 mM MgSO4, 50 mM β-mercaptoethanol, and 2.5 mg/mL ONPG, the latter two reagents were added just prior to assay (all chemicals from Sigma). The reaction was allowed to proceed until a distinct yellow color developed. Reactions were stopped by the addition of 100 μL per well 1 M Na2CO3 and plates were read at 420 nm in Victor-2 (Perkin Elmer Life Sciences, Boston, Mass.). Values (relative luciferase activity) for each sample were expressed as a ratio of luciferase activity to OD420β-galactosidase activity measured in arbitrary units for each well. […] “b” is the slope, “c” is the IC50 or EC50. “x” is the concentration of the compound and “y” the activity at that concentration.
For orientation: Reporter assays use an easily measured gene product as a stand-in for the process of interest.
Regarding `N#Cc1ccc(N2N=C3c4ccc(C(=O)O)cc4CCC3C2c2ccc(F)cc2)cc1Cl` (racemic) [Example 2, 2-(3-chloro-4-cyanophenyl)-3-(4-fluorophenyl)-3,3a,4,5-tetrahydro-2H-benzo[g]indazole-7-carboxylic acid], the 50% inhibitory concentration (IC50) turned out to be 223 nM.
The same measure for `N#Cc1ccc(N2N=C3c4cc(C(=O)O)ccc4CCC3C2c2ccc(F)cc2)cc1Cl` (racemic) [Example 5, 2-(3-chloro-4-cyanophenyl)-3-(4-fluorophenyl)-3,3a,4,5-tetrahydro-2H-benzo[g]indazole-8-carboxylic acid]: 3700 nM; for `Cc1cc(N2N=C3c4ccc(C(=O)O)cc4CCC3C2c2ccc(F)cc2)ccc1C#N` (racemic) [Example 6, 2-(4-cyano-3-methylphenyl)-3-(4-fluorophenyl)-3,3a,4,5-tetrahydro-2H-benzo[g]indazole-7-carboxylic acid]: 81 nM.
Consider `N#Cc1ccc(N2N=C3c4ccc(C(=O)O)cc4CCC3C2c2ccc(F)cc2)cc1C(F)(F)F` (racemic) [Example 9, 2-[4-cyano-3-(trifluoromethyl)phenyl]-3-(4-fluorophenyl)-3,3a,4,5-tetrahydro-2H-benzo[g]indazole-7-carboxylic acid], for which the IC50 is 170 nM.
Consider `N#Cc1ccc(N2N=C3c4ccc(C(=O)O)cc4CCC3C2c2ccc(F)cc2)cc1` (racemic) [Example 10, 2-(4-cyanophenyl)-3-(4-fluorophenyl)-3,3a,4,5-tetrahydro-2H-benzo[g]indazole-7-carboxylic acid], for which the IC50 was found to be 553 nM.
In the case of `O=C(O)c1ccc2c(c1)CCC1C2=NN(c2ccc3c(c2)CCNC3=O)C1c1ccc(F)cc1` (racemic) [Example 13, 3-(4-fluorophenyl)-2-(1-oxo-1,2,3,4-tetrahydroisoquinolin-6-yl)-3,3a,4,5-tetrahydro-2H-benzo[g]indazole-7-carboxylic acid] it was 535 nM.
The same measure for `N#Cc1ccc(N2N=C3c4ccc(C(=O)O)cc4CCC3C2c2ccc(F)cc2)cn1` (racemic) [Example 14, 2-(6-cyanopyridin-3-yl)-3-(4-fluorophenyl)-3,3a,4,5-tetrahydro-2H-benzo[g]indazole-7-carboxylic acid trifluoroacetate]: 929 nM.
In the case of `N#Cc1ccc(N2N=C3c4ccc(C(=O)O)cc4CCC3C2C2CCCC2)cc1` (racemic) [Example 18, 2-(4-cyanophenyl)-3-cyclopentyl-3,3a,4,5-tetrahydro-2H-benzo[g]indazole-7-carboxylic acid] it was 89 nM; in that of `Cc1cc(N2N=C3c4ccc(C(=O)O)cc4CCC3C2C2CCCC2)ccc1C#N` (racemic) [Example 21, 2-(4-cyano-3-methylphenyl)-3-cyclopentyl-3,3a,4,5-tetrahydro-2H-benzo[g]indazole-7-carboxylic acid], 4 nM.
As for `Cc1nc(N2N=C3c4ccc(C(=O)O)cc4CCC3C2C2CCCC2)ccc1C#N` (racemic) [Example 24, 2-(5-cyano-6-methylpyridin-2-yl)-3-cyclopentyl-3,3a,4,5-tetrahydro-2H-benzo[g]indazole-7-carboxylic acid], the IC50 was found to be 8 nM.
The same measure for `COc1cc(N2N=C3c4ccc(C(=O)O)cc4CCC3C2C2CCCC2)ccc1C#N` (racemic) [Example 25, 2-(4-cyano-3-methoxyphenyl)-3-cyclopentyl-3,3a,4,5-tetrahydro-2H-benzo[g]indazole-7-carboxylic acid]: 7 nM.
On to `COCc1cc(N2N=C3c4ccc(C(=O)O)cc4CCC3C2C2CCCC2)ccc1C#N` (racemic) [Example 28, 2-(4-cyano-3-(methoxymethyl)phenyl)-3-cyclopentyl-3,3a,4,5-tetrahydro-2H-benzo[g] indazole-7-carboxylic acid], for which the 50% inhibitory concentration (IC50) was determined as 150 nM.
The same measure for `CN(C)Cc1cc(N2N=C3c4ccc(C(=O)O)cc4CCC3C2C2CCCC2)ccc1C#N` (racemic) [Example 29, 2-(4-cyano-3-((dimethylamino)methyl)phenyl)-3-cyclopentyl-3,3a,4,5-tetrahydro-2H-benzo[g]indazole-7-carboxylic acid trifluoroacetate]: over 1000 nM; for `COC(=O)c1ccc2c(c1)CCC1C2=NN(c2ccc(C#N)c(OCc3ccccc3)c2)C1C1CCCC1` (racemic) [Example 30, methyl 2-(3-(benzyloxy)-4-cyanophenyl)-3-cyclopentyl-3,3a,4,5-tetrahydro-2H-benzo[g]indazole-7-carboxylate]: 446 nM; for `N#Cc1ccc(N2N=C3c4ccc(C(=O)O)cc4CCC3C2C2CCCC2)cc1OCc1ccccc1` (racemic) [Example 31, 2-(3-(benzyloxy)-4-cyanophenyl)-3-cyclopentyl-3,3a,4,5-tetrahydro-2H-benzo[g]indazole-7-carboxylic acid]: 488 nM.
For `N#Cc1ccc(N2N=C3c4ccc(C(=O)O)cc4CC[C@@H]3[C@@H]2C2CCCC2)cc1O` (racemic) [Example 33], the IC50 is over 500 nM.
`N#Cc1ccc(N2N=C3c4ccc(C(=O)O)cc4CCC3C2C2CCOC2)cc1Cl` (racemic) [Example 34, 2-(3-chloro-4-cyanophenyl)-3-((R)-tetrahydrofuran-3-yl)-3,3a,4,5-tetrahydro-2H-benzo[g]indazole-7-carboxylic acid and 2-(3-chloro-4-cyanophenyl)-3-((S)-tetrahydrofuran-3-yl)-3,3a,4,5-tetrahydro-2H-benzo[g]indazole-7-carboxylic acid]: the half-inhibitory concentration (IC50) worked out at 720 nM.
In the case of `N#Cc1ccc(N2N=C3c4ccc(C(=O)O)cc4CCC3C2C2CCC2)cc1Cl` (racemic) [Example 35, 2-(3-chloro-4-cyanophenyl)-3-cyclobutyl-3,3a,4,5-tetrahydro-2H-benzo[g] indazole-7-carboxylic acid] it was 21 nM; in that of `N#Cc1ccc(N2N=C3c4ccc(C(=O)O)cc4CCC3C2C2CCOCC2)cc1Cl` (racemic) [Example 36, 2-(3-chloro-4-cyanophenyl)-3-(tetrahydro-2H-pyran-4-yl)-3,3a,4,5-tetrahydro-2H-benzo[g]indazole-7-carboxylic acid], 127 nM; in that of `N#Cc1ccc(N2N=C3c4ccc(C(=O)O)cc4CCC3C2C2CCOCC2)cc1` (racemic) [Example 37, 2-(4-cyanophenyl)-3-(tetrahydro-2H-pyran-4-yl)-3,3a,4,5-tetrahydro-2H-benzo[g]indazole-7-carboxylic acid], over 1000 nM.
The same measure for `N#Cc1ccc(N2N=C3c4ccc(C(=O)O)cc4CCC3C2C2CCNCC2)cc1Cl` (racemic) [Example 38, 2-(3-chloro-4-cyanophenyl)-3-(piperidin-4-yl)-3,3a,4,5-tetrahydro-2H-benzo[g]indazole-7-carboxylic acid trifluoroacetate]: over 1000 nM; for `Cc1ccc(C2C3CCc4cc(C(=O)O)ccc4C3=NN2c2ccc(C#N)c(Cl)c2)o1` (racemic) [Example 39]: 22 nM; for `N#Cc1ccc(N2N=C3c4ccc(C(=O)O)cc4CCC3C2C2=CCCC2)cc1Cl` (racemic) [Example 42, 2-(3-chloro-4-cyanophenyl)-3-cyclopentenyl-3,3a,4,5-tetrahydro-2H-benzo[g]indazole-7-carboxylic acid]: 15 nM.
In the case of `N#Cc1ccc(N2N=C3c4ccc(C(=O)O)cc4CCC3C2c2ccco2)cc1Cl` (racemic) [Example 43, 2-(3-chloro-4-cyanophenyl)-3-(2-furyl)-3,3a,4,5-tetrahydro-2H-benzo[g] indazole-7-carboxylic acid] it was 21 nM.
